Experimental data: patent publication US20220338463A1, “METHOD OF PRODUCING LYOPHILIZED CELLS” (LONZA LTD, priority 2019, published 2022)

Assays:
SK-N-AS cells [1] = assay: ALAMARBLUE assay of plated cells after freeze-thaw of suspended cells; format: cell-based, Human; conditions: for cell viability after freeze-thawing on decreasing the concentration of PBS: hypotonic conditions, FIG. 11
Method: The cells were plated on a 96-well plate in a density of 2.25×10^5 cells/cm^2 and diluted with medium to the final volume of 200 μL inside the well. The cells were then incubated overnight at 37° C. and 5% CO2 so they attached to the wells. Cells were stained with 10 μL ALAMARBLUE® reagent per 100 μL of medium in the well and incubated for 4 h. Same procedure was applied for a blank, where 200 μL of medium was pipetted into the well. After that, 100 μL of solution above the cells was pipetted into a black non-transparent 96-well plate and fluorescence was measured with SPECTRAMAX® plate reader (excitation λ=550 nm, emission λ=590 nm).
(§1) Formulations were prepared in 50 mL Falcon tubes and subsequently sterile filtered under the bench with 0.22 μm syringe filter and a syringe. Sterile formulations were then stored at 2-8° C. until further use. 0.5 mL of cell suspension in either PBS or medium at a concentration of 20*10^6 cells/mL was mixed with 0.5 mL of pre-warmed sterile formulation. Vials were then stoppered and stored in a −80° C. freezer for minimum overnight.
(§2) Subsequently, the vials were taken from the −80° C. freezer and rapidly thawed in the water bath at 37° C. Immediately after thawing, 0.1 mL of cell suspension was 2× diluted with medium and counted with NucleoCounter to obtain cell viability [%] and concentration inside the vial. Suspension was then plated on a 96-well plate so the cell density was 2.25×10^5 cells/cm^2 (growth area in one well is 0.32 cm^2). Calculation of the volume (V) of cell suspension is according to following equation: […]
Calculated volume was diluted inside of the well with cell growth medium, so that the final volume was 0.2 mL. 96-well plate with samples was incubated overnight in the incubator and ALAMARBLUE® assay was performed the morning after (if not stated differently in the results section).
ALAMARBLUE® on the other hand, contains a reagent called resazurin. This is a non-toxic, blue, weakly fluorescent dye, which can permeate cell membranes. Resazurin undergoes a metabolic reduction inside of the cell to a form called resorufin, which is pink and highly fluorescent. The intensity of fluorescence is proportional to the amount of cells that are able to metabolize resazurin and are thus considered viable.

[2] = Freeze drying, visual inspection of lyophilization cake; format: physicochemical; conditions: 1M propylene glycol and 0.1M trehalose formulation; FIG. 21B
Method: Freeze drying was performed with the SP Scientific's LyoStar 3 pilot scale freeze dryer with 0.4 m^2 of shelf surface area. Vials were filled and loaded on a tray under the biosafety bench and then loaded in the freeze dryer. Vials were left on the tray inside the lyophilizer, to avoid any spillage of biomaterial inside the chamber in case of a vial breakage.
Employed conservative lyophilization programs (Table 3 and Table 4) included freezing and primary drying steps. Since it is known from literature, that complete elimination of water and higher temperatures employed during secondary drying negatively impact the cell survival during process, the step was omitted. The product temperature was monitored by including a thermocouple inside the vial, so that its tip touched the bottom of the vial. After unloading of the vials from the lyophilizer, they were visually inspected.

SK-N-AS cells [3] = assay: DAPI/acridine orange viability (NUCLEOCOUNTER) directly after freeze-thaw; format: cell-based, Human; conditions: directly after thawing, FIG. 6
Method: 200 μL of cell suspension was pipetted into 1.5 mL Eppendorf tube and diluted with medium. Diluted suspension was then pipetted with VIAL-[…]™ and inserted into the NUCLEOCOUNTER® for measurement.
as §1, §2
Next, we compared two methods for determining viability and noticed a large discrepancy in obtained results (FIG. 5 and FIG. 6). The reason for this is the difference in underlying principles of viability assessment of both methods. As previously, DAPI/acridine orange staining is performed using NUCLEOCOUNTER®, which is an integrated fluorescence microscope with dual fluorescence channels. One is for staining with acridine orange and the other with DAPI dye. They both bind to DNA and label cellular nuclei with high specificity. Acridine orange can permeate the cell membrane and is used for cell detection, while DAPI cannot permeate the membrane and binds only to nuclei of dead cells with disrupted membrane. Thus, the cell viability according to the DAPI/acridine orange method, is mostly based on the integrity of cell membranes. Dyes are fluorescent and therefore visible when using fluorescence filters in microscope, while cell debris and other particles without DNA are not visible. The software then identifies and analyses the individual cells (even within smaller aggregates) and calculates the viability, by comparing the ratio of signal with Acridine Orange and DAPI staining (according to equation below).

SMILES: C[S+](C)[O-] [DMSO, Dimethyl Sulfoxide, reference compound]
- cell viability compared to the untreated control (SK-N-AS cells [1]; 5% DMSO, internal data): over 80%

SMILES: OCCO [ethylene glycol, Ethylene glycol]
- densities of plated cells after thawing, 1M ethylene glycol vs 1M propylene glycol (SK-N-AS cells [1]; 1M, FIG. 8B): not significantly different
- cell density after thawing vs propylene glycol, ANOVA and t-test (SK-N-AS cells [1]; formulation in medium, P<0.05): significantly worse than propylene glycol
- cell viability after freeze-thawing on decreasing the concentration of PBS (SK-N-AS cells [1]): decrease in cell viability

SMILES: OCC(O)CO [glycerol, Glycerol]
- cell density after freeze-thaw compared with 5% DMSO formulation in medium (SK-N-AS cells [1]; glycerol formulation in medium, FIG. 8A): not significantly worse than 5% DMSO formulation

SMILES: CC(O)CO (centres unmarked) [propylene glycol, Propylene glycol]
- appearance of lyophilizate [2]: remained in liquid form
- viability after FT of cells (DAPI/acridine testing) (SK-N-AS cells [3]; 0.1M propylene glycol): around 50%
- viability after FT of cells (DAPI/acridine testing) (SK-N-AS cells [3]; 0.2M propylene glycol): around 50%
- viability after FT of cells (DAPI/acridine testing) (SK-N-AS cells [3]; 1M propylene glycol): ~100%
- viability after FT of cells (DAPI/acridine testing) (SK-N-AS cells [3]; 2M propylene glycol): ~100%
- optimisation of propylene glycol concentration, viability by ALAMARBLUE (SK-N-AS cells [1]; 1M concentration, FIG. 7B): most favourable
- relative viability to control (untreated cells) after freeze thawing (SK-N-AS cells [1]; 5% (v/v) in cell medium, FIG. 7A): efficient in protecting the cells compared to other tested excipients
- cell viability of treated cells relative to untreated cells (metabolic assay) (SK-N-AS cells [1]; after FT, compared with DAPI/acridine results, FIG. 5): much lower cell viability
- cell viability after freeze-thawing on decreasing the concentration of PBS (SK-N-AS cells [1]): decrease in cell viability
